Consider 20 molecules from patent US12404242B2, “Compositions and methods for making and using small molecules in the treatment of cancer” (Reglagene, Inc., priority 2021, dated 2025).

Each structure is given as a SMILES string. Values after ≈ are worked out from the molar mass of the structure shown. Read-outs that look alike come from different tables or passages of the source.

The subject of one series is 22RV1 cells. The experiment in a line: Cell viability (AlamarBlue), 22RV1 prostate cancer cells. Conditions: 72 hours of treatment. On the set-up: key to EC50 (μM) in 22RV1 cells: Inactive: less than 50% inhibition at the highest concentration tested at 50 μM. The format is cell-based, human. The method, boiled down:
(§1)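 Following a 72-hour incubation with escalating compound doses, applied one day after seeding, AlamarBlue fluorescence gave viability relative to untreated cells, from which half-maximal effective concentrations were calculated.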

A further series has as its system LNCaP cells. As to the kind of experiment: Cell viability (AlamarBlue), LNCaP prostate cancer cells. The format is cell-based, human. The arrangement: key to EC50 (μM) in LNCaP cells: Inactive: less than 50% inhibition at the highest concentration tested at 50 μM. Conditions: 72 hours of treatment. The method, boiled down:
as §1

For a further series, the system named is U87 cells. As to the kind of experiment: Cell viability (AlamarBlue), U87 glioblastoma cells. The series is classed as cell-based, human. On the set-up: key to EC50 (μM) in U87 cells: Inactive: less than 50% inhibition at the highest concentration tested at 50 μM. Conditions: 72 hours of treatment. Put shortly: as §1
The next series concerns RWPE1 cells. The experiment in a line: Cell viability (AlamarBlue), RWPE1 normal prostate cells. The format is cell-based, human. The arrangement: key to EC50 (μM) in RWPE1 cells: Inactive: less than 50% inhibition at the highest concentration tested at 50 μM. Conditions: normal prostate cell line; for EC50 (μM) in RWPE1 cells: 72 hours of treatment; for EC50: Homo sapiens, RWPE-1, 72 hours of treatment. On the procedure:
(§2) In another exemplary method, half maximal effective concentration (EC50) was determined for some compounds and their isomers as disclosed herein in a variety of human cancer cell lines. In brief, cells from two prostate cancer cell lines (LNCaP, 22RV1), one glioblastoma cell line (U87), one breast cancer cell line (MCF7), a glioma cell line (LN18), a normal prostate cell line (RWPE1), and a glioblastoma cell line (T98G) were plated in a multi-well plate. After 24 hours, one of the compounds herein was added to the well at increasing concentrations. After 72 hours of treatment, cell viability was assessed using AlamrBlue® (Invitrogen) and fluorescence was read using the CLARIOstar Plus Multilabel Plate Reader (BMG Labtech). Samples were normalized to no treatment controls. EC50 values were determined using GraphPad Prism.

Series [1] can be described thus: Kinetic solubility in aqueous PBS buffer (HPLC-MS). Conditions: kinetic from dmso stock. The series is classed as physicochemical. On the procedure: In another exemplary method, central nervous system multiparameter optimization (CNS MPO) score and kinetic solubility of selected compounds was determined. CNS MPO score for compounds and their isomers disclosed herein were calculated using an algorithm that uses a weighted scoring function assessing 6 key physicochemical properties (clogP, clogD, MW, TPSA, HBD, and pKa) for blood-brain-barrier (BBB penetration). CNS MPO score ranged from 0 and 6.0 with scores≥4.0 used as a cut-off to select compounds that can have a high probability of accumulating in the CNS. Kinetic solubility of a compound is the maximum solubility of the fastest precipitating species of the compound. Kinetic solubility was determined by preparing a concentrated stock solution for compounds and their isomers disclosed herein in an organic solvent (DMSO), after which the solution was mixed with an aqueous PBS buffer and then filtered. Filtrate was tested to quantify the kinetic solubilty using HPLC-MS calibration curve. The CNS MPO Score and kinetic solubility of the compounds tested are provided in Table 7 where “ND” means not determined.

The subject of a further series is cancer cell. The experiment in a line: Cancer cell viability, cell line not stated (per-compound ranges in description). The series is classed as cell-based. Conditions: 'In some embodiments', values worded 'about', read-out: EC50 in cancer cell viability (range stated in description). On the procedure:
as §2

Setting [2] is: 'In some embodiments', values worded 'about', read-out: kinetic solubility (range stated in description).

Take `COC1CC(C(=O)NC(=O)Nc2ccc(Oc3ncc(Cl)cn3)c(C)c2)C1` (single isomer, unassigned) [Compound 20B, N-((4-((5-chloropyrimidin-2-yl)oxy)-3-methylphenyl)carbamoyl)-3-methoxycyclobutane-1-carboxamide]: the figures for the half-maximal effective concentration (EC50) with 22RV1 cells, in the series on LNCaP cells and with U87 cells were 15.3 µM, 5 µM and 31.2 µM, respectively. For the same molecule, the “EC50 (μM) in RWPE1 cells” value in the series on RWPE1 cells was “Inactive”.
As for `COC1CC(C(=O)NC(=O)Nc2ccc(Oc3nccs3)c(C)c2)C1` (single isomer, unassigned) [Compound 45A, 3-methoxy-N-((3-methyl-4-(thiazol-2-yloxy)phenyl)carbamoyl)cyclobutane-1-carboxamide], the results for the 50% effective concentration (EC50) with 22RV1 cells, in the series with LNCaP cells and with U87 cells were 2.8 µM, 0.9 µM and 3.7 µM, respectively. Further, the “EC50 (μM) in RWPE1 cells” value with RWPE1 cells is given as “Inactive”.
In the case of `COC1CC(C(=O)NC(=O)Nc2ccc(Oc3nccs3)c(C)c2)C1` (single isomer, unassigned) [Compound 45B, 3-methoxy-N-((3-methyl-4-(thiazol-2-yloxy)phenyl)carbamoyl)cyclobutane-1-carboxamide], the EC50 in the series on 22RV1 cells came out at 14.2 µM; with LNCaP cells, 4 µM; in the series on U87 cells, 12.2 µM. Besides, in the series on RWPE1 cells, the “EC50 (μM) in RWPE1 cells” value was “Inactive”.
With `COC1CCC(C(=O)NC(=O)Nc2ccc(Oc3ncco3)c(C)c2)CC1` (stereo not drawn) [Compound 21, 1-(4-methoxycyclohexanecarbonyl)-3-[3-methyl-4-(1,3-oxazol-2-yloxy)phenyl]urea], the 50% effective concentration (EC50) with 22RV1 cells (Homo sapiens, 22Rv1, 72 h) worked out at 24 µM; in the series on LNCaP cells (Homo sapiens, LNCaP, 72 h), 19.7 µM; with U87 cells (Homo sapiens, U-87 MG, 72 h) it was 20.8 µM; in the series on RWPE1 cells it was 33 µM.
On to `COC1CCC(C(=O)NC(=O)Nc2ccc(Oc3cccnn3)c(C)c2)CC1` (stereo not drawn) [Compound 22, 1-(4-methoxycyclohexanecarbonyl)-3-[3-methyl-4-(pyridazin-3-yloxy)phenyl]urea], for which the “EC50 (μM) in 22RV1 cells” value in the series with 22RV1 cells is “Inactive”. Also, the “EC50 (μM) in LNCaP cells” value with LNCaP cells was “Inactive”. Besides, in the series with U87 cells, the “EC50 (μM) in U87 cells” value was “Inactive”. Besides, the “EC50 (μM) in RWPE1 cells” value with RWPE1 cells is given as “Inactive”.
For the molecule `COC1CCC(C(=O)NC(=O)Nc2ccc(Oc3ncc(Cl)cn3)cc2F)CC1` (stereo not drawn) [Compound 23, 3-{4-[(5-chloropyrimidin-2-yl)oxy]-2-fluorophenyl}-1-(4-methoxycyclohexanecarbonyl)urea], the 50% effective concentration (EC50) in the series on 22RV1 cells (Homo sapiens, 22Rv1, 72 h) turned out to be 30.6 µM. Moreover, in the series on LNCaP cells, the “EC50 (μM) in LNCaP cells” value is “Inactive”. Besides, in the series with U87 cells, the “EC50 (μM) in U87 cells” value was “Inactive”. In the series on RWPE1 cells, the “EC50 (μM) in RWPE1 cells” value is listed as “Inactive”.
Consider `COC1CCC(C(=O)NC(=O)Nc2ccc(Oc3ccc(Cl)cn3)cc2F)CC1` (stereo not drawn) [Compound 24, 3-{4-[(5-chloropyridin-2-yl)oxy]-2-fluorophenyl}-1-(4-methoxycyclohexanecarbonyl)urea], for which, in the series with 22RV1 cells, the “EC50 (μM) in 22RV1 cells” value is “Inactive”. Besides, the “EC50 (μM) in LNCaP cells” value in the series on LNCaP cells is recorded as “Inactive”. Further, the “EC50 (μM) in U87 cells” value in the series with U87 cells was “Inactive”. Moreover, the concentration giving a half-maximal response (EC50) with RWPE1 cells is 31 µM.
`COC1CC(C(=O)NC(=O)Nc2ccc(Oc3nc4ccccc4s3)c(C)c2)C1` (stereo not drawn) [Compound 56, N-((4-(benzo[d]thiazol-2-yloxy)-3-methylphenyl)carbamoyl)-3-methoxycyclobutane-1-carboxamide]: the 50% effective concentration (EC50) with 22RV1 cells (Homo sapiens, 22Rv1, 72 h) was 0.35 µM; with LNCaP cells (Homo sapiens, LNCaP, 72 h), 0.15 µM; with U87 cells (Homo sapiens, U-87 MG, 72 h) it was 0.89 µM; in the series with RWPE1 cells, 22.4 µM. Also, the kinetic solubility in series [1] (DMSO stock mixed with aqueous PBS buffer, filtered, read-out: Kinetic Solubility) is 1 µM (≈ 0.411 µg/mL).
In the case of `O=C(NC(=O)C1CCCCC1)Nc1ccc(Oc2ncc(Cl)cn2)c(F)c1` [Compound 70, N-((4-((5-chloropyrimidin-2-yl)oxy)-3-fluorophenyl)carbamoyl)cyclohexanecarboxamide], the “EC50 (μM) in 22RV1 cells” value in the series with 22RV1 cells is given as “Inactive”. Moreover, the “EC50 (μM) in LNCaP cells” value in the series with LNCaP cells is “Inactive”. For the same molecule, in the series with U87 cells, the “EC50 (μM) in U87 cells” value is reported as “Inactive”. For the same molecule, the “EC50 (μM) in RWPE1 cells” value in the series on RWPE1 cells is “Inactive”.
Take `COC12CC(C(=O)NC(=O)Nc3ccc(Oc4nccs4)c(C)c3)(C1)C2` [drawing 270, 3-methoxy-N-((3-methyl-4-(thiazol-2-yloxy)phenyl)carbamoyl)bicyclo[1.1.1]pentane-1-carboxamide]: the EC50 with cancer cell was 0.04 to 0.08 µM. Further, the solubility (kinetic) in series [1] (setting [2]) lay in the range of 1.5 to 3.5 µM (≈ 0.56 to 1.31 µg/mL).
Take `COC12CC(C(=O)NC(=O)Nc3ccc(Oc4ccc(Cl)cn4)c(C)c3)(C1)C2` [drawing 271, N-((4-((5-chloropyridin-2-yl)oxy)-3-methylphenyl)carbamoyl)-3-methoxybicyclo[1.1.1]pentane-1-carboxamide]: the EC50 with cancer cell lay in the range of 0.01 to 0.16 µM.
Regarding `COC12CC(C(=O)NC(=O)Nc3ccc(Oc4ncc(Cl)cn4)c(C)c3)(C1)C2` [drawing 272, N-((4-((5-chloropyrimidin-2-yl)oxy)-3-methylphenyl)carbamoyl)-3-methoxybicyclo[1.1.1]pentane-1-carboxamide], the EC50 in the series with cancer cell lay within 0.04 to 0.08 µM. Further, the solubility (kinetic) in series [1] (setting [2]) is 1.5 to 3.5 µM (≈ 0.604 to 1.41 µg/mL).
For the molecule `COC12CC(C(=O)NC(=O)Nc3ccc(Oc4ccccn4)c(C)c3)(C1)C2` [drawing 273, 3-methoxy-N-((3-methyl-4-(pyridin-2-yloxy)phenyl)carbamoyl)bicyclo[1.1.1]pentane-1-carboxamide], in the series with cancer cell, the EC50 was 0.1 to 0.4 µM.
In the case of `COC12CC(C(=O)NC(=O)Nc3ccc(Oc4ncccn4)c(C)c3)(C1)C2` [drawing 274, 3-methoxy-N-((3-methyl-4-(pyrimidin-2-yloxy)phenyl)carbamoyl)bicyclo[1.1.1]pentane-1-carboxamide], the EC50 with cancer cell was in the range of 0.5 to 4 µM. In addition, in series [1] (setting [2]), the solubility (kinetic) is 25 to 30 µM (≈ 9.21 to 11.1 µg/mL).
As to `COC12CC(C(=O)NC(=O)Nc3ccc(Oc4ncc(F)cn4)c(C)c3)(C1)C2` [drawing 275, N-((4-((5-fluoropyrimidin-2-yl)oxy)-3-methylphenyl)carbamoyl)-3-methoxybicyclo[1.1.1]pentane-1-carboxamide], the EC50 in the series with cancer cell was 0.5 to 4 µM. The solubility (kinetic) in series [1] (setting [2]) lay within 85 to 91 µM (≈ 32.8 to 35.2 µg/mL).
As for `COC12CC(C(=O)NC(=O)Nc3ccc(Oc4ccc(F)cn4)c(C)c3)(C1)C2` [drawing 276, N-((4-((5-fluoropyridin-2-yl)oxy)-3-methylphenyl)carbamoyl)-3-methoxybicyclo[1.1.1]pentane-1-carboxamide], in the series on cancer cell, the half-maximal effective concentration (EC50) fell in the range of 0.05 to 0.35 µM.
On to `COC12CC(C(=O)NC(=O)Nc3cc(C)c(Oc4ncc(Cl)cn4)c(F)c3)(C1)C2` [drawing 277, N-((4-((5-chloropyrimidin-2-yl)oxy)-3-fluoro-5-methylphenyl)carbamoyl)-3-methoxybicyclo[1.1.1]pentane-1-carboxamide], for which the EC50 with cancer cell lay within 0.034 to 0.065 µM. Besides, in series [1] (setting [2]), the solubility (kinetic) was 1.5 to 3.5 µM (≈ 0.631 to 1.47 µg/mL).
Take `COC12CC(C(=O)NC(=O)Nc3cc(C)c(Oc4ccc(F)cn4)c(F)c3)(C1)C2` [drawing 278, N-((3-fluoro-4-((5-fluoropyridin-2-yl)oxy)-5-methylphenyl)carbamoyl)-3-methoxybicyclo[1.1.1]pentane-1-carboxamide]: the concentration for a half-maximal effect (EC50) with cancer cell was 0.087 to 0.63 µM.
Take `COC1CC(C(=O)NC(=O)Nc2ccc(C)c(Oc3nccs3)c2)C1` (stereo not drawn) [drawing 279, 3-methoxy-N-((4-methyl-3-(thiazol-2-yloxy)phenyl)carbamoyl)cyclobutane-1-carboxamide]: in the series with cancer cell, the EC50 was 0.01 to 0.05 µM. For the same molecule, the kinetic solubility in series [1] (setting [2]) lay in the range of 7 to 11 µM (≈ 2.53 to 3.98 µg/mL).
Regarding `COC12CC(C(=O)NC(=O)Nc3ccc(C)c(Oc4ccccn4)c3)(C1)C2` [drawing 284, 3-methoxy-N-((4-methyl-3-(pyridin-2-yloxy)phenyl)carbamoyl)bicyclo[1.1.1]pentane-1-carboxamide], in the series on cancer cell, the EC50 lay in the range of 0.02 to 0.07 µM.
